Laboratory results taken from patent US20080213125A1, “Apparatus and Method for Using Ozone as a Disinfectant” (Huawei Technologies Co. LTD., priority 2004, published 2008).
“And” between values parts separate entries of the source, which are not always exact repeats. Identical values can stand only once. Like-named read-outs stand apart in the source and are kept apart here.

Experiments:
[1] = system: Vesicular stomatitis virus (VSV); settings: 3 to 14 mL of 1.4 mmol/L (65 micrograms/mL) to 1.6 mmoler/L, aqueous; cited from earlier work
[2] = system: Mulluscum Contagiosum Virus (MCV)
type 39 rhinovirus = settings: cited from earlier work
Human rotavirus [3] = settings: cited from earlier work
Polio-virus type 3 = settings: aqueous, 20 seconds, ozone demand-free 0.05 M phosphate buffer (pH 6.9) at 22 degrees C.; cited from earlier work
HIV Type 1 = settings: 2 hours, 1,200 ppm; cited from earlier work
Feline calicivirus (FCV) [4] = system: Feline calicivirus (FCV)
Hepatitis A virus [5] = settings: aqueous, 60 seconds, 1 mg/L or greater at all pH levels; cited from earlier work
Influenza virus [6] = settings: continuous, 0.5 ppm; cited from earlier work
Poliovirus [7] = settings: 0.1-2.0 mg/l, aqueous, cited from earlier work
HIV = settings: serum and serum-supplemented media; tested 0.5 to 4.0 micrograms/ml−1; cited from earlier work
[8] = system: HEp-2 cell-associated poliovirus (Sabin 1); settings: cited from earlier work
Influenza virus [9] = settings: 3 hours (post infection), 0.6 ppm; cited from earlier work
Feline calicivirus (FCV) [10] = experiment: Experiment #1: ozone gas exposure of virus on surfaces in a chamber
factor VIII = factor VIII (Homo sapiens, UniProt P00451); settings: plasma and immunoaffinity-purified preparations; 2 hours, 1,200 ppm; cited from earlier work
Sequence of factor VIII (P00451 20-2351): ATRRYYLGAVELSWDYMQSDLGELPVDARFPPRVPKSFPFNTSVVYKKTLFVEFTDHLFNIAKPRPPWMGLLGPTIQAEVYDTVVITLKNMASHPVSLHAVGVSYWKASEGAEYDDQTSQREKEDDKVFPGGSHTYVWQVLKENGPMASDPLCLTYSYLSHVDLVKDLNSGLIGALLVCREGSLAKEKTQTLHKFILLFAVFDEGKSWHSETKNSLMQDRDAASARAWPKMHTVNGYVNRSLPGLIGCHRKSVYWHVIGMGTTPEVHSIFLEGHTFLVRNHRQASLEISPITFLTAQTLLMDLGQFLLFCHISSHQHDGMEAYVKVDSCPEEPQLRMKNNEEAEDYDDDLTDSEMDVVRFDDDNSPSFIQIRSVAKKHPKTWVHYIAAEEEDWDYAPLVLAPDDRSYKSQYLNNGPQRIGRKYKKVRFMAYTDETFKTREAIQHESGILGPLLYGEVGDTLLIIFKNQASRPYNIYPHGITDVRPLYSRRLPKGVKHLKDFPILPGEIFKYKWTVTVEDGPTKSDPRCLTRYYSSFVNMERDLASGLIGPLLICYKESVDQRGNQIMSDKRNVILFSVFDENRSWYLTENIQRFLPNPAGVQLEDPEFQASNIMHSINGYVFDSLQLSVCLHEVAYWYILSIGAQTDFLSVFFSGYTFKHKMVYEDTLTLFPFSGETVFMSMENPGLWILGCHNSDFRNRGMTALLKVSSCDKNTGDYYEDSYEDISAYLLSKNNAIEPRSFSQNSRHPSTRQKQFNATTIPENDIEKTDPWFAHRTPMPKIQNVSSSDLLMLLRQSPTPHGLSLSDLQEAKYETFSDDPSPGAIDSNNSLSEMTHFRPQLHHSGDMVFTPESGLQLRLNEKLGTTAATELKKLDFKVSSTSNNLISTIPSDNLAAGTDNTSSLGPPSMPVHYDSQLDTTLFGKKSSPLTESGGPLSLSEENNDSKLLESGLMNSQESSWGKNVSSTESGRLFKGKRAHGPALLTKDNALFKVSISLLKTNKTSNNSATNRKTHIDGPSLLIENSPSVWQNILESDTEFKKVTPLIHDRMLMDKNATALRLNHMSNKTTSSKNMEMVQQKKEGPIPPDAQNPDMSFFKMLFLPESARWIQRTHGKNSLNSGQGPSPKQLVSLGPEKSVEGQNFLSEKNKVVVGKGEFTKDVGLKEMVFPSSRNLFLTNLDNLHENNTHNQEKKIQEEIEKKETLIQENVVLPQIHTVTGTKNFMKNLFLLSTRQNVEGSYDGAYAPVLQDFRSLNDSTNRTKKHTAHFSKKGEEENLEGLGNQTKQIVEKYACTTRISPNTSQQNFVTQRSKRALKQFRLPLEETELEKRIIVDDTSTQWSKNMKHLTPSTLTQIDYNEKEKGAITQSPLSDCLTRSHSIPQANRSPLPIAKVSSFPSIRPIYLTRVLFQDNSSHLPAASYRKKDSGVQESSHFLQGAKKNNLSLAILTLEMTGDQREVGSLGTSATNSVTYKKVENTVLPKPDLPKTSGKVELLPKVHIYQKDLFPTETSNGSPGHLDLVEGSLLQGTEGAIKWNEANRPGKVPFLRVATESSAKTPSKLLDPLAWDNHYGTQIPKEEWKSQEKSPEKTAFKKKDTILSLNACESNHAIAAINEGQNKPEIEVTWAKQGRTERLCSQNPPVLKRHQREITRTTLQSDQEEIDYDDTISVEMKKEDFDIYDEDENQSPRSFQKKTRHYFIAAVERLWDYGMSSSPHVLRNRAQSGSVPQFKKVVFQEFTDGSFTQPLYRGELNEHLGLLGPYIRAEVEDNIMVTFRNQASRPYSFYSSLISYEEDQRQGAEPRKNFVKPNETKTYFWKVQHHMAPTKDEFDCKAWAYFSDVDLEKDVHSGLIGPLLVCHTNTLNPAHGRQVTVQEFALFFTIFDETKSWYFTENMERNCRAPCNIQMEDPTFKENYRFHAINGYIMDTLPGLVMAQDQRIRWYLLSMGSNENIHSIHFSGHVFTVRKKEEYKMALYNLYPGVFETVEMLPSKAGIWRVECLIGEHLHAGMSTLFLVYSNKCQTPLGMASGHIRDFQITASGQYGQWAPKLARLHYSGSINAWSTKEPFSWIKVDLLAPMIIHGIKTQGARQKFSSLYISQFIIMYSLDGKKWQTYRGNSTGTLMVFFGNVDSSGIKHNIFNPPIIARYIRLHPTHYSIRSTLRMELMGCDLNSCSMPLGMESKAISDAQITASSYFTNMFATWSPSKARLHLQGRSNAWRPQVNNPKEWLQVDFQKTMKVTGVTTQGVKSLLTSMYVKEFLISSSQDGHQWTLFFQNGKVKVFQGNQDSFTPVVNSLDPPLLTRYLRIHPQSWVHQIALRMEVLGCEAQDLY

[11] = system: Herpes Simplex Virus (HSV); experiment: Experiment #4: ozone gas against dried viruses on surfaces
Influenza virus [12] = settings: inhaled, 0.5 ppm; cited from earlier work
Poliovirus [13] = settings: high humidity, 20 ppm to 40 ppm, about 15 minutes
Polio-virus 1 (PV1) = settings: steadily flowing water at 20 degrees C. and pH 7; cited from earlier work
[14] = system: Herpes Simplex Virus (HSV); experiment: Experiment #1: ozone gas exposure of virus on surfaces in a chamber
rhinovirus = experiment: Experiment #4: ozone gas against dried viruses on surfaces; settings: dried state on glass, plastic, steel, wood and fabric
FCV = experiment: Experiment #3: reduced ozone doses and high humidity; settings: high humidity, 20 ppm to 40 ppm, about 15 minutes
viruses [15] = system: viruses
[16] = system: Respiratory syncytial virus; settings: gaseous, in vitro, 2 hours, 1 ppm; cited from earlier work
viruses [17] = system: viruses; remark: listed apart in the source
Polio-viruses = settings: aqueous, 1.0 to 1.5 mg ozone/liter (dissolved); cited from earlier work
[18] = system: Venezuelan equine encephalomyelitis virus; settings: aqueous, 45 minutes, 0.025 mg of ozone per liter; control levels 10 (7.25-7.5); cited from earlier work
bacteriophage phi 6 = settings: 3 to 14 mL of 1.4 mmol/L (65 micrograms/mL) to 1.6 mmoler/L, aqueous; cited from earlier work
HSV [19] = experiment: Experiment #3: reduced ozone doses and high humidity; settings: high humidity, 20 ppm to 40 ppm, about 15 minutes
MS2 coliphage = settings: aqueous, 20 seconds, ozone demand-free 0.05 M phosphate buffer (pH 6.9) at 22 degrees C.; cited from earlier work
influenza virus [20] = system: influenza virus
T1 phage = settings: gaseous, 10 minutes, 10 ppm; cited from earlier work
[21] = system: HEp-2 cell-associated coxsackievirus A9; settings: aqueous, 30 seconds, 4.06-4.68 mg/liter; cited from earlier work
Influenza virus [22] = settings: gaseous, in vivo, 0.5 ppm; cited from earlier work
Poliovirus [23] = settings: under similar conditions (about 100 ppm chamber)
Hepatitis A virus [24] = settings: ozone and UV light, cited from earlier work
Human rotavirus [25] = settings: aqueous, 25 μg/ml; cited from earlier work
HSV [26] = experiment: Experiment #2: ozone inactivation at different locations within a test room; settings: 28 ppm, 60 minutes exposure; three samples at three locations in test room
Poliovirus [27] = settings: dried state on glass, plastic, steel, wood and fabric

## Ozone
[1]
  inactivated: Inactivated by greater than 4 log10
[2]
  reduced the virus: more than 99%
Type 39 rhinovirus; human, in vivo
  adverse effects in experimental group: placebo groups; no adverse
  effect on individuals infected with rhinovirus: no effect
Type 39 rhinovirus; inhaled, 0.3 ppm, 6 hours per day for five days
  viral titres, experimental versus placebo groups: No difference in viral titres
FV
  reduced the virus: more than 99%
Human rotavirus [3]
  sensitivity of human rotavirus to inactivation compared with simian rotavirus: strikingly less sensitive to
Polio-virus type 3
  more inactivation observed with MS2 coliphage than with poliovirus type 3: inactivated, 1.6 log units more
HIV Type 1
  inactivation: >11 log inactivation (NB.
Feline calicivirus (FCV) [4]
  inactivation by the ozone generator: efficiently inactivated
Hepatitis A virus [5]
  complete inactivation: complete (5 log) inactivation
Influenza virus [6]
  acute virus-induced lung injury & residual lung damage: exposure mitigates acute
  mitigated the virus-induced acute lung injury: approximately 50%. Ozone
  proliferation of virus in the lungs as quantitated by infectious virus titers: Ozone exposure did not alter
MCV
  reduced the virus: more than 99%
Poliovirus [7]; Step 1: 0.2-1.0 s
  virus inactivated, Step 1: Step 1: 95 to 99% of the virus
Poliovirus [7]; Step 2: several minutes
  virus inactivated, Step 2: Step 2: remainder inactivated
HIV
  concentration at which complete inactivation of HIV obtained: obtained at 4.0 micrograms/ml−1
[8]
  Effectiveness (inactivation): Inactivated cell-associated
Influenza virus [9]
  virus growth in nose: Complete inhibition of virus
Feline calicivirus (FCV) [10]; 100 ppm for 20-30 minutes
  reduced the virus: more than 99%
Feline calicivirus (FCV) [10]; 100 ppm, 10 minutes
  inactivated virus infectivity: 90-95%
Corona virus
  inactivation (kill) by ozone gas: efficiently inactivate
Factor VIII
  effect on factor VIII activity: Minimal effect on factor VIII
[11]; 100 ppm for 20 to 30 minutes
  reduced the virus: more than 99%
[11]; dried state on glass, plastic, steel, wood and fabric
  inactivation (kill) by ozone gas: efficiently inactivate
Influenza virus [12]
  distribution of viral antigen: well as altered the distribution
  spread of infection: less widespread infection, as
Poliovirus [13]
  inactivated: more than 99.6%
Polio-virus 1 (PV1)
  Concentration for complete inactivation of PV1: 0.13 mg/L
[14]; 100 ppm for 20-30 minutes
  reduced the virus: more than 99%
[14]; 100 ppm, 10 minutes
  inactivated virus infectivity: 90-95%
rhinovirus
  inactivation (kill) by ozone gas: efficiently inactivate
FCV
  inactivated: 99.91%
Viruses [15]
  susceptibility of viruses to ozone on surfaces: susceptible
  virus inactivation in high humidity versus ambient humidity: much more efficiently
  virus infectivity after exposure: no vilus infectivity could be detected at all
[16]
  percentage of cells infected, experimental versus control groups: No difference
Viruses [17]
  susceptibility of viruses to ozone on surfaces: susceptible
  virus inactivation in high humidity versus ambient humidity: much more efficiently
Polio-viruses
  Effectiveness: Dependant on the condition
[18]
  inactivation: Inactivation of 10 (6.5) median median cell culture infective doses
Bacteriophage phi 6
  inactivated: Inactivated by greater than 4 log10
HSV [19]
  inactivated: more than 99%
MS2 coliphage
  MS2 coliphage inactivated: >99.99% of MS2 coliphage
Influenza virus [20]
  inactivation (kill) by ozone gas: efficiently inactivate
T1 phage
  reduction in number of phages: 90% reduction in number of
[21]
  Effectiveness (inactivation): Inactivated cell-associated
Influenza virus [22]
  Severity of infection: Severity of infection reduced
Poliovirus [23]
  inactivation by ozone: inactivated
Hepatitis A virus [24]; from 1.72 log TCID50 ml(−1), within 24 h
  virus titre after depuration: [TCID50] ml(−1) to <1 log log TCID50 ml(−1)
Hepatitis A virus [24]; from 3.82 log TCID50 ml(−1), within 48 h
  virus titre after depuration: ml(−1) to <1 log TCID50 ml(−1)
Human rotavirus [25]
  decrease of rotavirus infectivity: 8 to 9 log10 TCID50/ml.
HSV [26]
  HSV inactivated (killed): 98% and 99.4% and 97.8%
Poliovirus [27]
  inactivation (kill) by ozone gas: efficiently inactivate
